Source: US20230172973A1, “METHODS AND COMPOSITIONS FOR TREATING AND COMBATTING TUBERCULOSIS” (THIRTY RESPIRATORY LIMITED, priority 2020, published 2023)

Assays:
[1] = system: SARS-CoV-2 clinical isolate; test: SARS-CoV-2 inhibition (virus yield reduction, TCID50 titration); assay type: cell-based
Method: At time 0 hr, Vero E6 cells were infected with virus in presence of the formulation or controls and incubated for 1 hour. After this incubation period the inoculum was removed and the cells were washed. Fresh formulation or controls were then added to the washed cells. At 24 hours post infection, Vero E6 cell supernatants were harvested and titrated, and the virus titration was incubated for 6 days prior to readout to determine any virus yield reduction. Separate tests were performed at four MOIs including 3.0 and 0.3, although only those two MOIs were titrated. The readout was by crystal violet (cell monolayer) staining, followed by CPE scoring.

Vero E6 cells = settings: 2 hr and 24 hr

SMILES | SARS-CoV-2 titre (FIG. 33, Run 1) ([1]; MOI 3.0, 24 hours incubation) | SARS-CoV-2 titre (FIG. 34, Run 2) ([1]; MOI 3.0 and MOI 0.3, 48 hours incubation) | In vitro antiviral action against SARS-CoV-2 (FIGS. 33 and 34) ([1]; Vero E6 cells, MOI 3.0 and 0.3) | Cytotoxicity on the LDH assay (FIG. 32) (Vero E6 cells)
CCN(CC)CCCC(C)Nc1ccnc2cc(Cl)ccc12 (stereo not shown) [chloroquine, Chloroquine phosphate] | limit of detection | limit of detection |  | 
O=C(O)CC(O)(CC(=O)O)C(=O)O [citric acid pH 5.8, citric acid] |  |  | high in vitro antiviral action | low cytotoxicity
